Where “and” joins values, the source holds several entries; their conditions need not be identical. Equal values may be shown once.
System: 616215-338-R-J1-PDC tumor spheroids, viability
Experiment: Anticancer human tumor 616215-338-R-J1-PDC patient-derived colon adenocarcinoma cell line growth inhibition [GQUAD]
Settings: spheroids with HUVEC and MSC; for viability, T/C: stronger effect = lower value; active = viability on the fitted dose curve at most 10% of control; inactive = the rest
Text: DNA G-quadruplex Stabilizer Agents in Combinations in Complex Spheroids
A high-throughput screen of multi-cell type tumor spheroids was designed to identify active combinations of DNA G-quadruplex stabilizer agents and targeted small molecules. Complex spheroids include a stromal component modeled by human endothelial cells (HUVEC) and fibroblasts modeled by human mesenchymal stem cells (MSCs). The concentration ranges selected for each drug and investigational agent were based upon clinically achievable concentrations if the clinical Cmax of the agent was known.
Compounds. The drugs and investigational agents: pidnarulex (CX-5461; NSC782164), APTO-253 (NSC789042), BRACO-19 (NSC847499), peposertib (NSC802822), ceralasertib (NSC780249), elimusertib (NSC800525), camonsertib (NSC841442), AZD-1390 (NSC803789), olaparib (NSC753686), talazoparib (NSC767125), ART-558 (NSC835418), sotorasib (NSC818433), MRTX-1133 (NSC836407), SN-38 (NSC673596), topotecan (NSC609699), etoposide (NSC141540), doxorubicin (NSC123127), gemcitabine (NSC613327), 5-fluorouracil (NSC19893), paclitaxel (NSC125973), vemurafenib (NSC761431), panobinostat (NSC761190), R-306465 (JNJ-16241199; NSC773264), adavosertib (NSC754352), TP-3654 (NSC805149), carboplatin (NSC241240), KSQ-4279 (NSC840948), and staurosporine (NSC755774) were obtained from the National Cancer Institute (NCI) Developmental Therapeutics Program Chemical Repository (34). The FDA-approved anticancer drug set is available from the NCI Developmental Therapeutics Program. […] The stock solutions were prepared in dimethyl sulfoxide (DMSO, Sigma-Aldrich, St. Louis, MO, cat. D2650) at 800-fold the tested concentration and stored at -70 degrees C prior to their use. All drugs and investigational agents were tested over a range starting from a high concentration at or near the clinical Cmax and decreasing in half-log increments. If the clinical Cmax for an agent had not been determined, the highest concentration tested was 10 microM.
2.3 Cell Culture. All cells were maintained in an incubator at 37 degrees C and 5% CO2 with 95% humidity. The PDC lines were cultured according to standard operating procedures established by the NCI PDMR. All PDCs were thawed and cultured in Matrigel-coated flasks prepared with a working solution of 1X Ham's F-12 nutrient mix, without supplementation (Invitrogen, cat. 11765054), 100 U/mL penicillin-streptomycin (Invitrogen, cat. 15140122), and 2.5% Matrigel (Corning Inc., cat. 354248) for the first three passages. The 857933-349-R-J2-PDC line was cultured in 6C/Colon 1B media, which includes advanced DMEM/F-12 (Thermo Fisher Scientific, cat. 12634028), 10 mM HEPES (Thermo Fisher Scientific, cat. 15630080), 1X GlutaMAX supplement (Thermo Fisher Scientific, cat. 35050061), 0.1 mg/mL primocin (InvivoGen, cat. ant-pm-2), 10% defined fetal bovine serum, heat inactivated (HyClone Laboratories Inc., cat. SH30070.03HI), 50% L-WRN conditioned media (ATCC, cat. CRL-3276), 1.25 mM N-Acetyl-L-cysteine (Sigma-Aldrich, cat. A9165), 10 mM nicotinamide (Sigma-Aldrich, cat. N0636), 1X B-27 supplement (Thermo Fisher Scientific, cat. 17504044), 1X N-2 supplement (Thermo Fisher Scientific, cat. 17502048), 10 microM Y-27632 dihydrochloride (Tocris Bioscience, cat. 1254), and 50 ng/mL human EGF recombinant protein (Thermo Fisher Scientific, cat. PHG0311). The 485176-168-R4-J1-PDC line was cultured in Panc media, which includes all 6C/Colon 1B media components plus 100 ng/mL human FGF-10 (Thermo Fisher Scientific, cat. 100-26), 500 nM SB-431542 (Selleckchem, cat. S1067), and gastrin (Tocris, cat. 3006).
[…]
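Also: spheroids exposed to agents for 7 days before readout.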
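For viability, T/C in this document: percent viability relative to DMSO vehicle control wells taken as 100%.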

Nc1ccn(C2OC(CO)C(O)C2(F)F)c(=O)n1 (configuration not stated) + Cc1[nH]c2ccc(F)cc2c1-c1nc2c3cccnc3c3ncccc3c2[nH]1
0.0336 µM: IC50 (curve of first compound, second compound 0.1 µM)
inactive: viability, T/C (second compound 0.0316 µM, first compound 0.0316 µM) 39% | viability, T/C (second compound 0.0316 µM, first compound 0.1 µM) 26.1% | viability, T/C (second compound 0.0316 µM, first compound 0.316 µM) 19.7% | viability, T/C (second compound 0.0316 µM, first compound 1 µM) 13.7% | viability, T/C (second compound 0.0316 µM, first compound 3.16 µM) 14% | viability, T/C (second compound 0.0316 µM, first compound 10 µM) 16.1% | viability, T/C (second compound 0.1 µM, first compound 0.0316 µM) 51.6% | viability, T/C (second compound 0.1 µM, first compound 0.1 µM) 20.2% | viability, T/C (second compound 0.1 µM, first compound 0.316 µM) 13.4% | viability, T/C (second compound 0.1 µM, first compound 1 µM) 12.9% | viability, T/C (second compound 0.1 µM, first compound 3.16 µM) 16.2% | viability, T/C (second compound 0.1 µM, first compound 10 µM) 17.1% | viability, T/C (second compound 0.316 µM, first compound 0.0316 µM) 43.9% | viability, T/C (second compound 0.316 µM, first compound 0.1 µM) 23.8% | viability, T/C (second compound 0.316 µM, first compound 0.316 µM) 14.6% | viability, T/C (second compound 0.316 µM, first compound 1 µM) 13.9% | viability, T/C (second compound 0.316 µM, first compound 3.16 µM) 16% | viability, T/C (second compound 0.316 µM, first compound 10 µM) 13.6% | viability, T/C (second compound 1 µM, first compound 0.0316 µM) 39.2% | viability, T/C (second compound 1 µM, first compound 0.1 µM) 31.1% | viability, T/C (second compound 1 µM, first compound 0.316 µM) 14.8% | viability, T/C (second compound 1 µM, first compound 1 µM) 11.8% | viability, T/C (second compound 1 µM, first compound 3.16 µM) 13.4% | viability, T/C (second compound 1 µM, first compound 10 µM) 13.8% | viability, T/C (second compound 3.16 µM, first compound 0.0316 µM) 29.9% | viability, T/C (second compound 3.16 µM, first compound 0.1 µM) 22% | viability, T/C (second compound 3.16 µM, first compound 0.316 µM) 18.2% | viability, T/C (second compound 3.16 µM, first compound 1 µM) 13.8% | viability, T/C (second compound 3.16 µM, first compound 3.16 µM) 11% | viability, T/C (second compound 3.16 µM, first compound 10 µM) 14.6% | viability, T/C (second compound 10 µM, first compound 0.0316 µM) 38.7% | viability, T/C (second compound 10 µM, first compound 0.1 µM) 17.2% | viability, T/C (second compound 10 µM, first compound 0.316 µM) 12.4% | viability, T/C (second compound 10 µM, first compound 1 µM) 14% | viability, T/C (second compound 10 µM, first compound 3.16 µM) 13.8% | viability, T/C (second compound 10 µM, first compound 10 µM) 13.8%
< 0.0316 µM: IC50 (curve of first compound, second compound 0.0316 µM) | IC50 (curve of first compound, second compound 0.316 µM) | IC50 (curve of first compound, second compound 1 µM) | IC50 (curve of first compound, second compound 3.16 µM) | IC50 (curve of first compound, second compound 10 µM)

Cc1[nH]c2ccc(F)cc2c1-c1nc2c3cccnc3c3ncccc3c2[nH]1
> 10 µM: IC50 (compound alone, run of 04/16/2024) | IC50 (compound alone, run of 04/22/2024)
inactive: viability, T/C (compound 0.0316 µM) 105% [middle of 12 runs] | viability, T/C (compound 0.1 µM) 104% [middle of 12 runs] | viability, T/C (compound 0.316 µM) 99.5% [middle of 12 runs] | viability, T/C (compound 1 µM) 100% [middle of 12 runs] | viability, T/C (compound 3.16 µM) 91.3% [middle of 12 runs] | viability, T/C (compound 10 µM) 98% [middle of 12 runs]

CC1COCCN1c1cc(C2(O)CC3CCC(C2)O3)c2cnn(-c3ccn[nH]3)c2n1 (configuration not stated)
0.217 µM and 0.171 µM and 0.175 µM: IC50 (curve of compound)
inactive: viability, T/C (compound 0.0316 µM) 95.2% and 102% and 99.8% | viability, T/C (compound 0.1 µM) 60.7% and 60.2% and 55.6% | viability, T/C (compound 0.316 µM) 45.5% and 31.8% and 40.3% | viability, T/C (compound 1 µM) 34.9% and 39.4% and 31.6% | viability, T/C (compound 3.16 µM) 21.1% and 23.5% and 21.3% | viability, T/C (compound 10 µM) 23.2% and 16.9% and 12.9%
